From patent US20200172483A1, “HETEROCYCLIC SMALL MOLECULE MODULATORS OF HUMAN STING” (Curadev Pharma Limited, priority 2017, published 2020) come the findings set out here.

One assay concerns the target T1, WT/R232 STING protein (Homo sapiens, UniProt Q86WV6, H232R).
T1 construct: host or cells: HEK293T
Description: Luciferase reporter assay in HEK293T-hSTING-Luciferase cells (R232). The settings on record: 20 hr stimulation, EC50 range. Format: cell-based. The method in brief:
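Readout is fold-induction over baseline of secreted luciferase, measured by luminescence after 20 hr compound stimulation. Cells: clonally selected HEK293T stably carrying hSTING (R232) and a luciferase reporter under five tandem ISREs fused to an ISG54 minimal promoter.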
(Reporter assays use an easily measured gene product as a stand-in for the process of interest.)

The next assay has as its target T2, hSTING (H232) (Homo sapiens, UniProt Q86WV6).
T2 construct: host or cells: HEK293T
Description: Luciferase reporter assay in HEK293T-hSTING-Luciferase cells (H232/REF polymorph). Format: cell-based. The settings on record: EC50 range. Summed up: (§1)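 Clonal HEK293T lines stably expressing the hSTING variant (H232 or HAQ) plus an ISRE/ISG54-driven secreted luciferase reporter were stimulated with compounds for 20 hr. Supernatant luciferase measured by luminescence (Quanti-Luc).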

Another assay has as its target T3, hSTING (HAQ) (Homo sapiens, UniProt Q86WV6, G230A/H232R/R293Q/R71H).
T3 construct: host or cells: HEK293T
Description: Luciferase reporter assay in HEK293T-hSTING-Luciferase cells (HAQ polymorph). Format: cell-based. To be noted: EC50 range. Summed up: as §1

For another assay, the system named is IRF pathway. The assay can be described thus: Reporter gene expression assay for IRF axis in THP1-Dual cells (secreted Lucia luciferase). To be noted: 20 hr stimulation, QUANTI-Luc, EC50 range, read-out: THP-IRF activity. The format is cell-based, human. Summed up:
(§2)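 THP1-Dual cells (THP-1 monocytes with inducible NF-κB-SEAP and IRF-Lucia reporters; 5×10^5 cells) were stimulated with compounds for 20 hr. Secreted SEAP (QUANTI-Blue) and Lucia luciferase (QUANTI-Luc) were then measured in the supernatant. EC50 values are reported as ranges.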

The subject of the next assay is NF-κB pathway. Description: Reporter gene expression assay for NFκB axis in THP1-Dual cells (secreted SEAP). The format is cell-based, human. To be noted: 20 hr stimulation, QUANTI-Blue SEAP, EC50 range, read-out: THP-NFKB activity. The method in brief:
as §2

pEC50: −log10 of the molar value. Where two headings read alike, the source gives them in different places.

T3 sequence (Q86WV6 whole entry R71H/G230A/H232R/R293Q): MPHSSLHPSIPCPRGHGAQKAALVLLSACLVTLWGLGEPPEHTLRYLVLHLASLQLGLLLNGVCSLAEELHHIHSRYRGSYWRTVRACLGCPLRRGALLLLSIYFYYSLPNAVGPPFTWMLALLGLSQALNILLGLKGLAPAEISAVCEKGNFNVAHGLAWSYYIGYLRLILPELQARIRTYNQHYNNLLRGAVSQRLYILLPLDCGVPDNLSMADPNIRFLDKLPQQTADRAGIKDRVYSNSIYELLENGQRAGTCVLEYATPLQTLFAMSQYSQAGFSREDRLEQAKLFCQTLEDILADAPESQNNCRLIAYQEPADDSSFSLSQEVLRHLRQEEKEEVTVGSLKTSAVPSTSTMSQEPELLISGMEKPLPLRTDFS
T2 sequence (Q86WV6 whole entry): as the sequence (Q86WV6 whole entry R71H/G230A/H232R/R293Q) above, with H71R, A230G, R232H, Q293R counted along it
T1 sequence (Q86WV6 whole entry H232R): as the sequence (Q86WV6 whole entry R71H/G230A/H232R/R293Q) above, with H71R, A230G, Q293R counted along it

In the case of `CC1(Cl)C(=O)N(Cc2cc(F)cc(F)c2)c2cc(C(=O)NCc3c(F)cc(F)cc3F)ccc21` (centres unmarked) [Example 147, 3-chloro-1-(3,5-difluorobenzyl)-3-methyl-2-oxo-N-(2,4,6-trifluorobenzyl)indoline-6-carboxamide], the pEC50 was no less than 6.00 on WT/R232 STING protein; less than 5.00 on hSTING (H232); less than 5.00 at hSTING (HAQ); less than 5.00 with IRF pathway; less than 5.00 with NF-κB pathway.

In the case of `CC1(C)C(=O)N(Cc2c(F)cccc2Cl)c2cc(C(=O)NCc3ccc4ccoc4c3)ccc21` [Example 90, N-(benzofuran-6-ylmethyl)-1-(2-chloro-6-fluorobenzyl)-3,3-dimethyl-2-oxoindoline-6-carboxamide], the pEC50 is no less than 6.00 on WT/R232 STING protein; 5.00 to 6.00 on hSTING (H232); 5.00 to 6.00 at hSTING (HAQ); 5.00 to 6.00 in the assay with IRF pathway (Homo sapiens, THP1-Dual, 20 h); 5.00 to 6.00 with NF-κB pathway (Homo sapiens, THP1-Dual, 20 h).

As for `C=CCC1(C)C(=O)N(Cc2cc(C)nn2CC)c2cc(C(=O)NCc3c(F)cc(F)cc3F)ccc21` (centres unmarked) [Example 175, 3-allyl-1-((1-ethyl-3-methyl-1H-pyrazol-5-yl)methyl)-3-methyl-2-oxo-N-(2,4,6-trifluorobenzyl)indoline-6-carboxamide], the pEC50 is 5.00 to 6.00 on WT/R232 STING protein; 5.00 to 6.00 on hSTING (H232); 5.00 to 6.00 on hSTING (HAQ); 5.00 to 6.00 in the assay on IRF pathway (Homo sapiens, THP1-Dual, 20 h); 5.00 to 6.00 in the assay on NF-κB pathway (Homo sapiens, THP1-Dual, 20 h).

As to `Cc1cc(CN2C(=O)C(C)(C)c3ccc(C(=O)NCc4cc5ccccc5o4)cc32)n(C)n1` [Example 107, N-(benzofuran-2-ylmethyl)-1-((1,3-dimethyl-1H-pyrazol-5-yl)methyl)-3,3-dimethyl-2-oxoindoline-6-carboxamide], the pEC50 is no less than 6.00 on WT/R232 STING protein; 5.00 to 6.00 on hSTING (H232); 5.00 to 6.00 at hSTING (HAQ); 5.00 to 6.00 with IRF pathway (Homo sapiens, THP1-Dual, 20 h); 5.00 to 6.00 in the assay on NF-κB pathway (Homo sapiens, THP1-Dual, 20 h).

For the compound `CC1(C)C(=O)N(Cc2cc(F)cc(F)c2)c2nc(C(=O)NCc3cc4ccccc4o3)ccc21` [Example 182, N-(benzofuran-2-ylmethyl)-1-(3,5-difluorobenzyl)-3,3-dimethyl-2-oxo-2,3-dihydro-1H-pyrrolo[2,3-b]pyridine-6-carboxamide], the pEC50 on WT/R232 STING protein is 5.00 to 6.00; at hSTING (H232) it was 5.00 to 6.00; at hSTING (HAQ), 5.00 to 6.00; in the assay with IRF pathway (Homo sapiens, THP1-Dual, 20 h), less than 5.00; with NF-κB pathway (Homo sapiens, THP1-Dual, 20 h), less than 5.00.

Take `CC1(C)C(=O)N(Cc2noc3ncccc23)c2cc(C(=O)NCc3c(F)cc(F)cc3F)ccc21` [Example 97, 1-(isoxazolo[5,4-b]pyridin-3-ylmethyl)-3,3-dimethyl-2-oxo-N-(2,4,6-trifluorobenzyl)indoline-6-carboxamide]: the pEC50 on WT/R232 STING protein is no less than 6.00; on hSTING (H232) it was 5.00 to 6.00; at hSTING (HAQ), 5.00 to 6.00; with IRF pathway (Homo sapiens, THP1-Dual, 20 h), less than 5.00; with NF-κB pathway (Homo sapiens, THP1-Dual, 20 h), less than 5.00.

Consider `CC1(C)C(=O)N(Cc2c(F)cccc2OC(F)F)c2cc(C(=O)NCc3c(F)cc(F)cc3F)ccc21` [Example 111, 1-(2-(difluoromethoxy)-6-fluorobenzyl)-3,3-dimethyl-2-oxo-N-(2,4,6-trifluorobenzyl)indoline-6-carboxamide], for which the pEC50 on WT/R232 STING protein is no less than 6.00; on hSTING (H232), no less than 6.00; on hSTING (HAQ) it was no less than 6.00; with IRF pathway (Homo sapiens, THP1-Dual, 20 h) it was 5.00 to 6.00; with NF-κB pathway (Homo sapiens, THP1-Dual, 20 h), 5.00 to 6.00.

For `Cc1nn(C)c(CN2C(=O)C(C)(C)c3ccc(C(=O)NCc4cc5ccccc5o4)cc32)c1Br` [Example 112, N-(benzofuran-2-ylmethyl)-1-((4-bromo-1,3-dimethyl-1H-pyrazol-5-yl)methyl)-3,3-dimethyl-2-oxoindoline-6-carboxamide], the pEC50 at WT/R232 STING protein was no less than 6.00; on hSTING (H232), no less than 6.00; at hSTING (HAQ) it was no less than 6.00; in the assay on IRF pathway (Homo sapiens, THP1-Dual, 20 h), 5.00 to 6.00; in the assay on NF-κB pathway (Homo sapiens, THP1-Dual, 20 h) it was 5.00 to 6.00.

`O=C(NCc1c(F)cc(F)cc1F)c1ccc2c(c1)N(Cc1cc(F)cc(F)c1)C(=O)C21CCCC1` [Example 137, 1′(3,5-difluorobenzyl)-2′-oxo-N-(2,4,6-trifluorobenzyl)spiro[cyclopentane-1,3′-indoline]-6′-carboxamide]: the pEC50 on WT/R232 STING protein is 5.00 to 6.00; at hSTING (H232), 5.00 to 6.00; on hSTING (HAQ), 5.00 to 6.00; with IRF pathway (Homo sapiens, THP1-Dual, 20 h), less than 5.00; in the assay on NF-κB pathway (Homo sapiens, THP1-Dual, 20 h), less than 5.00.

In the case of `Cc1cccc(F)c1CN1C(=O)C(C)(C)c2ccc(C(=O)NCc3c(F)cc(F)cc3F)cc21` [Example 103, 1-(2-fluoro-6-methylbenzyl)-3,3-dimethyl-2-oxo-N-(2,4,6-trifluorobenzyl)indoline-6-carboxamide], the pEC50 was no less than 6.00 on WT/R232 STING protein; no less than 6.00 at hSTING (H232); no less than 6.00 on hSTING (HAQ); 5.00 to 6.00 in the assay on IRF pathway (Homo sapiens, THP1-Dual, 20 h); 5.00 to 6.00 in the assay on NF-κB pathway (Homo sapiens, THP1-Dual, 20 h).

With `Cc1ccc(CNC(=O)c2ccc3c(c2)N(Cc2cccc(F)c2F)C(=O)C3(C)C)o1` [Example 61, 1-(2,3-difluorobenzyl)-3,3-dimethyl-N-((5-methylfuran-2-yl)methyl)-2-oxoindoline-6-carboxamide], the pEC50 at WT/R232 STING protein was 5.00 to 6.00; at hSTING (H232), 5.00 to 6.00; at hSTING (HAQ), 5.00 to 6.00; in the assay on IRF pathway (Homo sapiens, THP1-Dual, 20 h), less than 5.00; in the assay with NF-κB pathway (Homo sapiens, THP1-Dual, 20 h) it was less than 5.00.

Consider `CC1(C)C(=O)N(Cc2c(F)cccc2Cl)c2cc(C(=O)NCc3cc4ccc(F)cc4o3)ccc21` [Example 74, 1-(2-chloro-6-fluorobenzyl)-N-((6-fluorobenzofuran-2-yl)methyl)-3,3-dimethyl-2-oxoindoline-6-carboxamide], for which the pEC50 is no less than 6.00 at WT/R232 STING protein; no less than 6.00 on hSTING (H232); no less than 6.00 at hSTING (HAQ); 5.00 to 6.00 in the assay on IRF pathway (Homo sapiens, THP1-Dual, 20 h); 5.00 to 6.00 in the assay on NF-κB pathway (Homo sapiens, THP1-Dual, 20 h).

In the case of `CC1(C)C(=O)N(Cc2c(F)cccc2Cl)c2cc(C(=O)NCc3ccc4occc4c3)ccc21` [Example 71, N-(benzofuran-5-ylmethyl)-1-(2-chloro-6-fluorobenzyl)-3,3-dimethyl-2-oxoindoline-6-carboxamide], the pEC50 on WT/R232 STING protein was 5.00 to 6.00; at hSTING (H232), 5.00 to 6.00; at hSTING (HAQ), 5.00 to 6.00; in the assay with IRF pathway (Homo sapiens, THP1-Dual, 20 h), less than 5.00; in the assay with NF-κB pathway (Homo sapiens, THP1-Dual, 20 h), 5.00 to 6.00.

With `CC1(C#N)C(=O)N(Cc2cc(F)cc(F)c2)c2cc(C(=O)NCc3cc4ccccc4o3)ccc21` (centres unmarked) [Example 92, N-(benzofuran-2-ylmethyl)-3-cyano-1-(3,5-difluorobenzyl)-3-methyl-2-oxoindoline-6-carboxamide], the pEC50 was 5.00 to 6.00 on WT/R232 STING protein; 5.00 to 6.00 at hSTING (H232); 5.00 to 6.00 on hSTING (HAQ); less than 5.00 with IRF pathway (Homo sapiens, THP1-Dual, 20 h); less than 5.00 with NF-κB pathway (Homo sapiens, THP1-Dual, 20 h).

Take `CC1(C)C(=O)N(Cc2cc(F)cc(F)c2)c2nc(C(=O)NCc3ccc(F)cc3)ccc21` [Example 189, 1-(3,5-difluorobenzyl)-N-(4-fluorobenzyl)-3,3-dimethyl-2-oxo-2,3-dihydro-1H-pyrrolo[2,3-b]pyridine-6-carboxamide]: the pEC50 at WT/R232 STING protein was no less than 6.00; at hSTING (H232) it was 5.00 to 6.00; on hSTING (HAQ), 5.00 to 6.00; with IRF pathway (Homo sapiens, THP1-Dual, 20 h) it was less than 5.00; in the assay on NF-κB pathway (Homo sapiens, THP1-Dual, 20 h) it was less than 5.00.

Take `Cc1cccc(CNC(=O)c2ccc3c(c2)N(Cc2c(F)cccc2Cl)C(=O)C3(C)C)c1` [Example 8, 1-(2-chloro-6-fluorobenzyl)-3,3-dimethyl-N-(3-methylbenzyl)-2-oxoindoline-6-carboxamide]: the pEC50 is no less than 6.00 at WT/R232 STING protein; 5.00 to 6.00 on hSTING (H232); 5.00 to 6.00 at hSTING (HAQ); less than 5.00 with IRF pathway (Homo sapiens, THP1-Dual, 20 h); 5.00 to 6.00 in the assay with NF-κB pathway (Homo sapiens, THP1-Dual, 20 h).

`CC1(Cl)C(=O)N(Cc2cc(F)cc(F)c2)c2cc(C(=O)NCc3c(F)cc(F)cc3F)ccc21` (centres unmarked) [Example 144, 3-Chloro-1-(3,5-difluorobenzyl)-3-methyl-2-oxo-N-(2,4,6 trifluorobenzyl) indoline-6-carboxamide]: the pEC50 at WT/R232 STING protein was no less than 6.00; at hSTING (H232), 5.00 to 6.00; on hSTING (HAQ), 5.00 to 6.00; with IRF pathway (Homo sapiens, THP1-Dual, 20 h) it was less than 5.00; in the assay on NF-κB pathway, 5.00 to 6.00.

Consider `Cc1cccc(CNC(=O)c2ccc3c(c2)N(Cc2cc(F)cc(F)c2)C(=O)C3(C)C)c1` [Example 4, 1-(3,5-difluorobenzyl)-3,3-dimethyl-N-(3-methylbenzyl)-2-oxoindoline-6-carboxamide], for which the pEC50 is 5.00 to 6.00 at WT/R232 STING protein; 5.00 to 6.00 on hSTING (H232); 5.00 to 6.00 at hSTING (HAQ); less than 5.00 in the assay with IRF pathway (Homo sapiens, THP1-Dual, 20 h); less than 5.00 with NF-κB pathway (Homo sapiens, THP1-Dual, 20 h).

With `Cc1ccc(CNC(=O)c2ccc3c(c2)N(Cc2cc(F)cc(F)c2)C(=O)C3(C)C)o1` [Example 16, 1-(3,5-difluorobenzyl)-3,3-dimethyl-N-((5-methylfuran-2-yl)methyl)-2-oxoindoline-6-carboxamide], the pEC50 on WT/R232 STING protein was 5.00 to 6.00; on hSTING (H232), 5.00 to 6.00; on hSTING (HAQ), 5.00 to 6.00; with IRF pathway (Homo sapiens, THP1-Dual, 20 h), less than 5.00; with NF-κB pathway (Homo sapiens, THP1-Dual, 20 h), less than 5.00.
